biological target: T1, human follicle-stimulating hormone receptor (FSHR) (Homo sapiens, UniProt P23945); test: Measurement of agonist cAMP production by activation of human FSHR; format: cell-based; settings: CHO-K1 human FSHR cells, 30 minutes at 37° C., HTRF cAMP kit; read-out: hFSHR Agonist cAMP EC50
T1 construct: host or cells: CHO-K1
T1 sequence (P23945 18-695): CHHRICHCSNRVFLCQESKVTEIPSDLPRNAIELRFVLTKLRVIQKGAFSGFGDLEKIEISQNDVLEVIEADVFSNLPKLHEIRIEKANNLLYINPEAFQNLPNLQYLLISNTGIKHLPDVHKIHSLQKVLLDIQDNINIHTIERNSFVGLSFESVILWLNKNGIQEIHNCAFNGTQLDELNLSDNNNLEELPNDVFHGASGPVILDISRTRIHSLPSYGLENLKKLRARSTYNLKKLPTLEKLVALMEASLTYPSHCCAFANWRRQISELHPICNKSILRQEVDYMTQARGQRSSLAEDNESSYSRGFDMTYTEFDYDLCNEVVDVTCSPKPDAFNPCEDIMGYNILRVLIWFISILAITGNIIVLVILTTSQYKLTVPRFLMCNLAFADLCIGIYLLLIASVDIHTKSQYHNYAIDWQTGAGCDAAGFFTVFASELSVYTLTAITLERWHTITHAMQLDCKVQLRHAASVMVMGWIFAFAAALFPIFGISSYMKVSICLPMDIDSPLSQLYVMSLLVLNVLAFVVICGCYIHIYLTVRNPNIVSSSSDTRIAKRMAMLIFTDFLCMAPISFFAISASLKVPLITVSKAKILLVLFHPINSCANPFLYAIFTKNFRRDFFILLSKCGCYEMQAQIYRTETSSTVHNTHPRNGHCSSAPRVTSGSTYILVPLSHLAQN
In short: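 cAMP output was measured by HTRF after 30 min at 37 °C agonist exposure (0–10,000 nM final) in stably FSHR-transfected CHO-K1 cells. Lysate cAMP was read off a standard curve and fitted to obtain half-maximal EC50.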

EC50 | SMILES
10 to 100 nM | COc1cc2c(cc1-c1cncc(NC(=O)CCOCCOCCNC(=O)[C@H]3O[C@@H](CNC(=O)CN4CCN(CC(=O)O)CCN(CC(=O)O)CCN(CC(=O)O)CC4)[C@H](O)[C@@H](O)[C@H]3O)c1)-c1c(c(C(=O)N3CCOCC3(C)C)nn1-c1cc(Cl)cc(Cl)c1)CO2 [Compound 54A, indium (III) 2,2′,2″-(10-(2-((((2S,3R,4R,5R,6S)-6-((2-(2-(3-((5-(1-(3,5-dichlorophenyl)-3-(3,3-dimethylmorpholine-4-carbonyl)-7-methoxy-1,4-dihydrochromeno[4,3-c]pyrazol-8-yl)pyridin-3-yl)amino)-3-oxopropoxy)ethoxy)ethyl)carbamoyl)-3,4,5-trihydroxytetrahydro-2H-pyran-2-yl)methyl)amino)-2-oxoethyl)-1,4,7,10-tetraazacyclododecane-1,4,7-triyl)triacetate]
< 10 nM | COc1cc2c(cc1-c1cncc(NC(=O)CCOCCNC(=O)CN3CCN(CC(=O)O)CCN(CC(=O)O)CCN(CC(=O)O)CC3)c1)-c1c(c(C(=O)N3CCOCC3(C)C)nn1-c1cc(Cl)cc(Cl)c1)CO2 [Compound 53, 2,2′,2″-(10-(2-((2-(3-((5-(1-(3,5-dichlorophenyl)-3-(3,3-dimethylmorpholine-4-carbonyl)-7-methoxy-1,4-dihydrochromeno[4,3-c]pyrazol-8-yl)pyridin-3-yl)amino)-3-oxopropoxy)ethyl)amino)-2-oxoethyl)-1,4,7,10-tetraazacyclododecane-1,4,7-triyl)triacetic acid--2,2,2-trifluoroacetic acid (1/1)]
< 10 nM | COc1cc2c(cc1-c1cccc(NC(=O)NCCOCCOCCOCCOCCNC(=O)CN3CCN(CC(=O)O)CCN(CC(=O)O)CCN(CC(=O)O)CC3)c1)-c1c(c(C(=O)N3CCOCC3(C)C)nn1-c1cc(Cl)cc(Cl)c1)CO2 [Compound 8A]
< 10 nM | COc1cc2c(cc1-c1cccc(NC(=O)CCCCCNC(=O)C(CS(=O)(=O)O)NC(=O)CN3CCN(CC(=O)O)CCN(CC(=O)O)CCN(CC(=O)O)CC3)c1)-c1c(c(C(=O)N3CCOCC3(C)C)nn1-c1cc(Cl)cc(Cl)c1)CO2 (stereo in doubt) [Compound 64, (R)-2,2′,2″-(10-(2-((1-((6-((3-(1-(3,5-dichlorophenyl)-3-(3,3-dimethylmorpholine-4-carbonyl)-7-methoxy-1,4-dihydrochromeno[4,3-c]pyrazol-8-yl)phenyl)amino)-6-oxohexyl)amino)-1-oxo-3-sulfopropan-2-yl)amino)-2-oxoethyl)-1,4,7,10-tetraazacyclododecane-1,4,7-triyl)triacetic acid]
< 10 nM | COc1cc2c(cc1-c1cccc(NC(=O)CCC(=O)N(CCOCCOCCC(=O)O)C3CCN(C(=O)CN4CCN(CC(=O)O)CCN(CC(=O)O)CCN(CC(=O)O)CC4)CC3)c1)-c1c(c(C(=O)N3CCOCC3(C)C)nn1-c1cc(Cl)cc(Cl)c1)CO2 [Compound 15, 2,2′,2″-(10-(2-(4-(N-(2-(2-(2-carboxyethoxy)ethoxy)ethyl)-4-((3-(1-(3,5-dichlorophenyl)-3-(3,3-dimethylmorpholine-4-carbonyl)-7-methoxy-1,4-dihydrochromeno[4,3-c]pyrazol-8-yl)phenyl)amino)-4-oxobutanamido)piperidin-1-yl)-2-oxoethyl)-1,4,7,10-tetraazacyclododecane-1,4,7-triyl)triacetic acid]
10 to 100 nM | COc1cc2c(cc1-c1cncc(NC(=O)CNC(=O)CC[C@@H](NC(=O)CNC(=O)CN3CCN(CC(=O)O)CCN(CC(=O)O)CCN(CC(=O)O)CC3)C(=O)O)c1)-c1c(c(C(=O)N3CCOCC3(C)C)nn1-c1cc(Cl)cc(Cl)c1)CO2 [Compound 55, (R)-2,2′,2″-(10-(2-((2-((1-carboxy-4-((2-((5-(1-(3,5-dichlorophenyl)-3-(3,3-dimethylmorpholine-4-carbonyl)-7-methoxy-1,4-dihydrochromeno[4,3-c]pyrazol-8-yl)pyridin-3-yl)amino)-2-oxoethyl)amino)-4-oxobutyl)amino)-2-oxoethyl)amino)-2-oxoethyl)-1,4,7,10-tetraazacyclododecane-1,4,7-triyl)triacetic acid--2,2,2-trifluoroacetic acid (1/1)]

From patent publication US20260137819A1 (Radionetics Oncology, Inc., priority 2022, published 2026)
